Assay results: US9260416B2, “Heterocyclic autotaxin inhibitors and uses thereof” (AMIRA PHARMACEUTICALS, INC., priority 2011, dated 2016)
pIC50: −log10 of the molar value.

Molecular target: T1, autotaxin (Homo sapiens, UniProt Q13822)
T1 construct: tissue Biocell Laboratories Inc 1121-00; host or cells: human serum (delipidated, dialyzed)
Assay: Human Serum Autotaxin Assay (choline release from LPC, TOOS detection)
Type: biochemical
Details: dialyzed human serum; substrate LPC 14:0, 300 μM; 4 hours at 37° C.; choline release read at 555 nm
Protocol: Human Serum Autotaxin Assay
Inhibition of autotaxin activity is assayed in human serum by measuring the amount of choline released from the substrate, lysophosphatidylcholine (LPC). […] To assay for autotaxin inhibition, 20 μl of the dialyzed human serum is incubated with 2 μl test compound in DMSO and 73 μl lyso-PLD buffer (100 mM Tris pH 9, 500 mM NaCl, 5 mM MgCl2, 30 μM CoCl2, 0.05% Triton X-100) for 15 minutes at 37° C. […] 100 μl of a color mix which contains 4.5 mM 4-aminoantipyrine, 2.7 mM N-ethyl-N-(2-hydroxy-3-sulfopropyl)-m-toluidine, 21 units/ml Horseradish peroxidase and 3 units/ml choline oxidase in 50 mM Tris, pH 8, 4.5 mM MgCl2 is added and the incubation continued for 15 minutes at room temperature before reading the absorbance at 555 nm. The concentration of released choline in the sample is determined from a choline standard curve and is equal to the concentration of LPA produced.

Row | Structure (SMILES) | pIC50
1 | Cc1[nH]c2cc(Cl)ccc2c1Sc1cncc(C(=O)O)c1 [Compound 1-1, 5-(6-Chloro-2-methyl-1H-indol-3-ylsulfanyl)-nicotinic acid] | < 6.00
2 | Cc1c(Sc2cncc(C(=O)O)c2)c2ccc(Cl)cc2n1Cc1ccccc1 [Compound 1-2, 5-(1-Benzyl-6-chloro-2-methyl-1H-indol-3-ylsulfanyl)-nicotinic acid] | < 6.00
3 | Cc1c(Sc2cncc(C(=O)O)c2)c2ccc(Cl)cc2n1-c1cnn(C)c1 [Compound 1-3, 5-[6-Chloro-2-methyl-1-(1-methyl-1H-pyrazol-4-yl)-1H-indol-3-ylsulfanyl]-nicotinic acid] | > 6.52
4 | CCn1cc(-n2c(C)c(Sc3cncc(C(=O)O)c3)c3ccc(Cl)cc32)cn1 [Compound 1-4, 5-[6-Chloro-1-(1-ethyl-1H-pyrazol-4-yl)-2-methyl-1H-indol-3-ylsulfanyl]-nicotinic acid] | > 6.52
5 | Cc1c(Sc2cncc(C(=O)O)c2)c2ccc(Cl)cc2n1-c1cnn(C(C)C)c1 [Compound 1-5, 5-[6-Chloro-1-(1-isopropyl-1H-pyrazol-4-yl)-2-methyl-1H-indol-3-ylsulfanyl]-nicotinic acid] | > 6.52
6 | Cc1c(Sc2cc(C(=O)O)ccn2)c2ccc(Cl)cc2n1-c1cnn(C)c1 [Compound 1-6, 2-[6-Chloro-2-methyl-1-(1-methyl-1H-pyrazol-4-yl)-1H-indol-3-ylsulfanyl]-isonicotinic acid] | < 6.00
7 | CCn1cc(-n2c(C)c(Sc3cc(C(=O)O)ccn3)c3ccc(Cl)cc32)cn1 [Compound 1-7, 2-[6-Chloro-1-(1-ethyl-1H-pyrazol-4-yl)-2-methyl-1H-indol-3-ylsulfanyl]-isonicotinic acid] | > 6.52
8 | Cc1c(Sc2cc(C(=O)O)ccn2)c2ccc(Cl)cc2n1-c1cnn(C(C)C)c1 [Compound 1-8, 2-[6-Chloro-1-(1-isopropyl-1H-pyrazol-4-yl)-2-methyl-1H-indol-3-ylsulfanyl]-isonicotinic acid] | 6.00 to 6.52
9 | CCn1cc(-n2c(C)c(Sc3cccc(C(=O)O)n3)c3ccc(Cl)cc32)cn1 [Compound 1-9, 6-[6-Chloro-1-(1-ethyl-1H-pyrazol-4-yl)-2-methyl-1H-indol-3-ylsulfanyl]-pyridine-2-carboxylic acid] | > 6.52
10 | Cc1c(Sc2cccc(C(=O)O)n2)c2ccc(Cl)cc2n1-c1cnn(C)c1 [Compound 1-10, 6-[6-Chloro-2-methyl-1-(1-methyl-1H-pyrazol-4-yl)-1H-indol-3-ylsulfanyl]-pyridine-2-carboxylic acid] | > 6.52
11 | CCCn1cc(-n2c(C)c(Sc3cccc(C(=O)O)n3)c3ccc(Cl)cc32)cn1 [Compound 1-11, 6-[6-Chloro-2-methyl-1-(1-propyl-1H-pyrazol-4-yl)-1H-indol-3-ylsulfanyl]-pyridine-2-carboxylic acid] | > 6.52
12 | CCn1cc(-n2c(C)c(Sc3cccc(C(=O)O)n3)c3ccc(Cl)c(F)c32)cn1 [Compound 1-12, 6-[6-Chloro-1-(1-ethyl-1H-pyrazol-4-yl)-7-fluoro-2-methyl-1H-indol-3-ylsulfanyl]-pyridine-2-carboxylic acid] | > 6.52
13 | Cc1c(Sc2cccc(C(=O)O)n2)c2ccc(Cl)c(F)c2n1-c1cnn(C(C)C)c1 [Compound 1-13, 6-[6-Chloro-7-fluoro-1-(1-isopropyl-1H-pyrazol-4-yl)-2-methyl-1H-indol-3-ylsulfanyl]-pyridine-2-carboxylic acid] | > 6.52
14 | Cc1c(Sc2cccc(C(=O)O)n2)c2ccc(Cl)cc2n1-c1cnn(C(C)C)c1 [Compound 1-14, 6-[6-Chloro-1-(1-isopropyl-1H-pyrazol-4-yl)-2-methyl-1H-indol-3-ylsulfanyl]-pyridine-2-carboxylic acid] | > 6.52
15 | CCCn1cc(-n2c(C)c(Sc3cccc(C(=O)O)n3)c3ccc(Cl)c(F)c32)cn1 [Compound 1-15, 6-[6-Chloro-7-fluoro-2-methyl-1-(1-propyl-1H-pyrazol-4-yl)-1H-indol-3-ylsulfanyl]-pyridine-2-carboxylic acid] | > 6.52
16 | CCn1cc(-n2c(C)c(Sc3cnn(CC(=O)O)c3)c3ccc(Cl)c(F)c32)cn1 [Compound 1-16, {4-[6-Chloro-1-(1-ethyl-1H-pyrazol-4-yl)-7-fluoro-2-methyl-1H-indol-3-ylsulfanyl]-pyrazol-1-yl}-acetic acid] | > 6.52
17 | CCn1cc(-n2c(C)c(Sc3cccc(CC(=O)O)n3)c3ccc(Cl)c(F)c32)cn1 [Compound 1-17, {6-[6-Chloro-1-(1-ethyl-1H-pyrazol-4-yl)-7-fluoro-2-methyl-1H-indol-3-ylsulfanyl]-pyridin-2-yl}-acetic acid] | > 6.52
18 | CCCn1cc(-n2c(C)c(Sc3cccc(CC(=O)O)n3)c3ccc(Cl)c(F)c32)cn1 [Compound 1-18, {6-[6-Chloro-7-fluoro-2-methyl-1-(1-propyl-1H-pyrazol-4-yl)-1H-indol-3-ylsulfanyl]-pyridin-2-yl}-acetic acid] | > 6.52
